Data published in US20240238423A9, “TETRAHYDROISOQUINOLINE HETEROBIFUNCTIONAL BCL-XL DEGRADERS” (Treeline Biosciences, Inc., priority 2022, published 2024).
Where two headings read alike, the source gives them in different places.

Biological target: T1, Human BCL-XL protein (N-terminal HiBiT tagged BCL-XL in HT1080 cells) (Homo sapiens, UniProt Q07817)
T1 construct: expressed in transfected cells; host or cells: HT-1080 (ATCC CCL-121), stably transduced with lentivirus pLV-UBC-N-HiBiT-BCL-XL-PGK-puro and selected with puromycin
T1 sequence (Q07817 whole entry): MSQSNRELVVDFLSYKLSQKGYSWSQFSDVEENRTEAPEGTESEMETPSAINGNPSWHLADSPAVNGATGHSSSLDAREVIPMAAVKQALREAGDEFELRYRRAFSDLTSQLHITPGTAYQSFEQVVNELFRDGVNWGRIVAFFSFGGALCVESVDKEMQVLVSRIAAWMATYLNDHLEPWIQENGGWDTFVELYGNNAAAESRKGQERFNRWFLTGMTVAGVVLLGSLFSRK
Assay: HiBiT based degradation assay
Format: cell-based
Settings: HT1080 cells expressing HiBiT-BCL-XL; for DC50: BCL-XL degradation
In short: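 HT1080 cells stably transduced by lentivirus with N-terminally HiBiT-tagged human BCL-XL and kept under 1 μg/mL puromycin selection were seeded at three thousand cells per well in 40 μL RPMI 1640 into 384-well plates pre-spotted with compounds across a concentration range. Luminescence was read on a PHERAstar FSX, normalized to DMSO, and fitted with a four-parameter logistic model.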

[1] = BCL-XL degradation normalized with DMSO control, 24 h

Row | Compound | Ymin (24 h) [1] | DC50 (24 h, read-out: EC50 (24 h)) [nM] | Ymin (6 h) (BCL-XL degradation normalized with DMSO control, 6 h) | DC50 (6 h, read-out: EC50 (6 h)) [nM]
1 | Cc1c(OCC[C@H]2CCC3(CCN(CC(=O)Nc4ccc5c(C6CCC(=O)NC6=O)nn(C)c5c4)CC3)C2)cccc1-c1ccc(N2CCc3cccc(C(=O)Nc4nc5ccccc5s4)c3C2)nc1C(=O)O (stereo in doubt) [Compound 272a, 6-(8-(benzo[d]thiazol-2-ylcarbamoyl)-3,4-dihydroisoquinolin-2(1H)-yl)-3-(3-(2-((2S)-8-(2-((3-(2,6-dioxopiperidin-3-yl)-1-methyl-1H-indazol-6-yl)amino)-2-oxoethyl)-8-azaspiro[4.5]decan-2-yl)ethoxy)-2-methylphenyl)picolinic acid] | A (Ymin < 50%) | < 100 |  | 
2 | Cc1c(OCCO[C@H]2C[C@H]3CC[C@@H](C2)N3CC(=O)Nc2ccc3c(C4CCC(=O)NC4=O)nn(C)c3c2)cccc1-c1ccc(N2CCc3cccc(C(=O)Nc4nc5ccccc5s4)c3C2)nc1C(=O)O (stereo partly drawn) [Compound 174a, 6-(8-(benzo[d]thiazol-2-ylcarbamoyl)-3,4-dihydroisoquinolin-2(1H)-yl)-3-(3-(2-(((1R,3r,5S)-8-(2-((3-(2,6-dioxopiperidin-3-yl)-1-methyl-1H-indazol-6-yl)amino)-2-oxoethyl)-8-azabicyclo[3.2.1]octan-3-yl)oxy)ethoxy)-2-methylphenyl)picolinic acid] | A (Ymin < 50%) | < 100 |  | 
3 | Cc1c(Oc2cccc(CCCN3CCN(c4ccc5c(C6CCC(=O)NC6=O)nn(C)c5c4)CC3)c2)cccc1-c1ccc(N2CCc3cccc(C(=O)Nc4nc5ccccc5s4)c3C2)nc1C(=O)O (stereo not shown) [Compound 195, 6-[8-(1,3-benzothiazol-2-ylcarbamoyl)-3,4-dihydro-1H-isoquinolin-2-yl]-3-[3-[3-[3-[4-[3-(2,6-dioxo-3-piperidyl)-1-methyl-indazol-6-yl]piperazin-1-yl]propyl]phenoxy]-2-methyl-phenyl]pyridine-2-carboxylic acid] | B (50% ≤ Ymin < 70%) | < 100 | C (Ymin ≥ 70%) | < 100
4 | Cc1cc(OCC[C@H](C)C2CCN(CC(=O)Nc3ccc4c(C5CCC(=O)NC5=O)nn(C)c4c3)CC2)ccc1-c1ccc(N2CCc3cccc(C(=O)Nc4nc5ccccc5s4)c3C2)nc1C(=O)O (single isomer, unassigned) [Compound 266b] | A (Ymin < 50%) | < 100 |  | 
